Measured values: ChEMBL document CHEMBL1255463, “Attenuation of colistin bactericidal activity by high inoculum of Pseudomonas aeruginosa characterized by a new mechanism-based population pharmacodynamic model” (Antimicrob Agents Chemother, 2010)
Activity calls are given as the source filed them. No cut-off for these calls is given here.

Tests used:
Format in all cases: functional, organism-based
[1] = test system: Pseudomonas aeruginosa; assay: Antimicrobial activity against 10^6 CFU/ml Pseudomonas aeruginosa PAO1 after 24 hrs by time-kill assay
[2] = test system: Pseudomonas aeruginosa; assay: Antimicrobial activity against 10^6 CFU/ml Pseudomonas aeruginosa URMC1 after 24 hrs by time-kill assay
[3] = test system: Pseudomonas aeruginosa; assay: Antimicrobial activity against 10^6 CFU/ml Pseudomonas aeruginosa URMC2 after 24 hrs by time-kill assay
[4] = test system: Pseudomonas aeruginosa; assay: Antimicrobial activity against 10^8 CFU/ml Pseudomonas aeruginosa PAO1 after 24 hrs by time-kill assay
[5] = test system: Pseudomonas aeruginosa; assay: Antimicrobial activity against 10^8 CFU/ml Pseudomonas aeruginosa URMC1 after 24 hrs by time-kill assay
[6] = test system: Pseudomonas aeruginosa; assay: Antimicrobial activity against 10^8 CFU/ml Pseudomonas aeruginosa URMC2 after 24 hrs by time-kill assay
[7] = test system: Pseudomonas aeruginosa; assay: Antimicrobial activity against 10^9 CFU/ml Pseudomonas aeruginosa PAO1 after 24 hrs by time-kill assay
[8] = test system: Pseudomonas aeruginosa; assay: Antimicrobial activity against 10^9 CFU/ml Pseudomonas aeruginosa URMC1 after 24 hrs by time-kill assay
[9] = test system: Pseudomonas aeruginosa; assay: Antimicrobial activity against 10^9 CFU/ml Pseudomonas aeruginosa URMC2 after 24 hrs by time-kill assay
[10] = test system: Pseudomonas aeruginosa; assay: Bactericidal activity against 10^6 CFU/ml Pseudomonas aeruginosa PAO1 at 1 to 4 times MIC up to 1 hr by time-kill assay
[11] = test system: Pseudomonas aeruginosa; assay: Bactericidal activity against 10^6 CFU/ml Pseudomonas aeruginosa URMC1 at 1 to 4 times MIC up to 1 hr by time-kill assay
[12] = test system: Pseudomonas aeruginosa; assay: Bactericidal activity against 10^6 CFU/ml Pseudomonas aeruginosa URMC2 at 1 to 4 times MIC up to 1 hr by time-kill assay
[13] = test system: Pseudomonas aeruginosa; assay: Bactericidal activity against 10^6 CFU/ml Pseudomonas aeruginosa PAO1 at >= 16 times MIC up to 30 mins by time-kill assay
[14] = test system: Pseudomonas aeruginosa; assay: Bactericidal activity against 10^6 CFU/ml Pseudomonas aeruginosa URMC1 at >= 16 times MIC up to 30 mins by time-kill assay
[15] = test system: Pseudomonas aeruginosa; assay: Bactericidal activity against 10^6 CFU/ml Pseudomonas aeruginosa URMC2 at >= 16 times MIC up to 30 mins by time-kill assay
[16] = test system: Pseudomonas aeruginosa; assay: Antimicrobial activity against 10^9 CFU/ml Pseudomonas aeruginosa PAO1 after 8 to 12 hrs by time-kill assay
[17] = test system: Pseudomonas aeruginosa; assay: Antimicrobial activity against 10^6 CFU/ml Pseudomonas aeruginosa PAO1 at 2 to 16 mg/L after 24 hrs by time-kill assay
[18] = test system: Pseudomonas aeruginosa; assay: Antimicrobial activity against 10^8 CFU/ml Pseudomonas aeruginosa PAO1 at 4 to 32 mg/L after 24 hrs by time-kill assay
[19] = test system: Pseudomonas aeruginosa; assay: Antimicrobial activity against 10^9 CFU/ml Pseudomonas aeruginosa PAO1 at 4 to 128 mg/L after 24 hrs by time-kill assay
[20] = test system: Pseudomonas aeruginosa; assay: Antimicrobial activity against 10^9.4 CFU/ml Pseudomonas aeruginosa PAO1 at 16 mg/L after 0.75 hrs by time-kill assay
[21] = test system: Pseudomonas aeruginosa; assay: Antimicrobial activity against 10^9.4 CFU/ml Pseudomonas aeruginosa PAO1 at 64 mg/L after 0.75 hrs by time-kill assay
[22] = test system: Pseudomonas aeruginosa; assay: Antimicrobial activity against 10^9.4 CFU/ml Pseudomonas aeruginosa PAO1 at 16 mg/L after 24 hrs by time-kill assay
[23] = test system: Pseudomonas aeruginosa; assay: Antimicrobial activity against 10^9.4 CFU/ml Pseudomonas aeruginosa PAO1 at 64 mg/L after 24 hrs by time-kill assay
[24] = test system: Pseudomonas aeruginosa; assay: Antimicrobial activity against Pseudomonas aeruginosa assessed as destabilization of bacterial outer membrane by receptor occupancy assay

COLISTIN [listing 1 of 2 here]
EC50 [1]: 0.777 mg/L
EC50 [2]: 0.736 mg/L
EC50 [3]: 1.15 mg/L
EC50 [4]: 1.49 mg/L
EC50 [5]: 2.69 mg/L
EC50 [6]: 2.56 mg/L
EC50 [7]: 6.22 mg/L
EC50 [8]: 4.62 mg/L
EC50 [9]: 3.5 mg/L

COLISTIN [listing 2 of 2 here]
Activity [1]: Dose-dependent effect
Activity [2]: Dose-dependent effect
Activity [3]: Dose-dependent effect
Activity [10]: Active
Activity [11]: Active
Activity [12]: Active
Activity [13]: Active
Activity [14]: Active
Activity [15]: Active
Activity [16]: inactive
Activity [17]: inactive
Activity [18]: inactive
Activity [19]: inactive
log10CFU/ml [20]: > 5
log10CFU/ml [21]: > 5
log10CFU/ml [22]: 5
log10CFU/ml [23]: > 5
Activity [24]: 53.7%
